Holding throughout (type): nucleic-acid assay
Test [1] deals with Nucleic Acid. Description: Stabilization of 5'-AGAGAGAAAGAAAAA-3' ssDNA sequence assessed as melting temperature at pH7 using 100 mM NaCl.
The test system of test [2] is Nucleic Acid. The test is described as follows: Stabilization of 5'-AGAGAGAGAGAAAAA-3' ssDNA sequence assessed as melting temperature at pH7 using 100 mM NaCl.
Test [3] deals with Nucleic Acid. The test is described as follows: Stabilization of 5'-AGAGAGATAGAAAAA-3' ssDNA sequence assessed as melting temperature at pH7 using 100 mM NaCl.
Test [4] deals with Nucleic Acid. The test is described as follows: Stabilization of 5'-AGAGAGACAGAAAAA-3' ssDNA sequence assessed as melting temperature at pH7 using 100 mM NaCl.

For the compound `Cc1cn([C@H]2C[C@H](OP(=O)(O)OC[C@H]3O[C@@H](n4cc(C)c(=O)[nH]c4=O)C[C@@H]3OP(=O)(O)OC[C@H]3O[C@@H](n4cc(C)c(N)nc4=O)C[C@@H]3OP(=O)(O)OC[C@H]3O[C@@H](n4cc(C)c(=O)[nH]c4=O)C[C@@H]3O)[C@@H](COP(=O)(O)O[C@H]3C[C@H](n4cc(C)c(=O)[nH]c4=O)O[C@@H]3COP(=O)(O)O[C@H]3C[C@H](n4cc(C)c(N)nc4=O)O[C@@H]3COP(=O)(O)O[C@H]3C[C@H](n4cc(C)c(=O)[nH]c4=O)O[C@@H]3COP(=O)(O)O[C@H]3C[C@H](n4cc(C)c(=O)[nH]c4=O)O[C@@H]3COP(=O)(O)O[C@H]3C[C@H](n4cc(C)c(=O)[nH]c4=O)O[C@@H]3COP(=O)(O)O[C@H]3C[C@H](n4cc(C)c(N)nc4=O)O[C@@H]3COP(=O)(O)O[C@H]3C[C@H](n4cc(C)c(=O)[nH]c4=O)O[C@@H]3COP(=O)(O)O[C@H]3C[C@H](n4cc(C)c(=O)[nH]c4=O)O[C@@H]3COP(=O)(O)O[C@H]3C[C@H](n4cc(C)c(=O)[nH]c4=O)O[C@@H]3COP(=O)(O)O[C@H]3C[C@H](n4cc(C)c(=O)[nH]c4=O)O[C@@H]3COP(=O)(O)O[C@H]3C[C@H](n4cc(C)c(=O)[nH]c4=O)O[C@@H]3CO)O2)c(=O)nc1N`, the Tm amounted to 52 °C in the test with Nucleic Acid [1], 42 °C with Nucleic Acid [2], 42 °C in the test on Nucleic Acid [3] and 39 °C in the test with Nucleic Acid [4].

Regarding `Cc1cn([C@H]2C[C@H](OP(=O)(O)OC[C@H]3O[C@@H](n4cc(C)c(=O)[nH]c4=O)C[C@@H]3OP(=O)(O)OC[C@H]3O[C@@H](n4cc(C)c(N)nc4=O)C[C@@H]3OP(=O)(O)OC[C@H]3O[C@@H](n4cc(C)c(=O)[nH]c4=O)C[C@@H]3OP(=O)(O)OC[C@H]3O[C@@H](n4cc(C)c(N)nc4=O)C[C@@H]3OP(=O)(O)OC[C@H]3O[C@@H](n4cc(C)c(=O)[nH]c4=O)C[C@@H]3O)[C@@H](COP(=O)(O)O[C@H]3C[C@H](n4cc(C)c(=O)[nH]c4=O)O[C@@H]3COP(=O)(O)O[C@H]3C[C@H](c4cn(CCCCCCCCCCO)nn4)O[C@@H]3COP(=O)(O)O[C@H]3C[C@H](n4cc(C)c(=O)[nH]c4=O)O[C@@H]3COP(=O)(O)O[C@H]3C[C@H](n4cc(C)c(N)nc4=O)O[C@@H]3COP(=O)(O)O[C@H]3C[C@H](n4cc(C)c(=O)[nH]c4=O)O[C@@H]3COP(=O)(O)O[C@H]3C[C@H](n4cc(C)c(=O)[nH]c4=O)O[C@@H]3COP(=O)(O)O[C@H]3C[C@H](n4cc(C)c(=O)[nH]c4=O)O[C@@H]3COP(=O)(O)O[C@H]3C[C@H](n4cc(C)c(=O)[nH]c4=O)O[C@@H]3COP(=O)(O)O[C@H]3C[C@H](n4cc(C)c(=O)[nH]c4=O)O[C@@H]3CO)O2)c(=O)nc1N`, the Tm with Nucleic Acid [1] worked out at 35 °C; in the test with Nucleic Acid [2], 39 °C; in the test with Nucleic Acid [3], 39 °C; in the test with Nucleic Acid [4] it was 39 °C.

`C#C[C@H]1C[C@H](OP(=O)(O)OC[C@H]2O[C@@H](n3cc(C)c(=O)[nH]c3=O)C[C@@H]2OP(=O)(O)OC[C@H]2O[C@@H](n3cc(C)c(N)nc3=O)C[C@@H]2OP(=O)(O)OC[C@H]2O[C@@H](n3cc(C)c(=O)[nH]c3=O)C[C@@H]2OP(=O)(O)OC[C@H]2O[C@@H](n3cc(C)c(N)nc3=O)C[C@@H]2OP(=O)(O)OC[C@H]2O[C@@H](n3cc(C)c(=O)[nH]c3=O)C[C@@H]2OP(=O)(O)OC[C@H]2O[C@@H](n3cc(C)c(N)nc3=O)C[C@@H]2OP(=O)(O)OC[C@H]2O[C@@H](n3cc(C)c(=O)[nH]c3=O)C[C@@H]2O)[C@@H](COP(=O)(O)O[C@H]2C[C@H](n3cc(C)c(=O)[nH]c3=O)O[C@@H]2COP(=O)(O)O[C@H]2C[C@H](n3cc(C)c(N)nc3=O)O[C@@H]2COP(=O)(O)O[C@H]2C[C@H](n3cc(C)c(=O)[nH]c3=O)O[C@@H]2COP(=O)(O)O[C@H]2C[C@H](n3cc(C)c(=O)[nH]c3=O)O[C@@H]2COP(=O)(O)O[C@H]2C[C@H](n3cc(C)c(=O)[nH]c3=O)O[C@@H]2COP(=O)(O)O[C@H]2C[C@H](n3cc(C)c(=O)[nH]c3=O)O[C@@H]2COP(=O)(O)O[C@H]2C[C@H](n3cc(C)c(=O)[nH]c3=O)O[C@@H]2CO)O1`: the Tm in the test on Nucleic Acid [1] stood at 32 °C; in the test on Nucleic Acid [2], 32 °C; in the test on Nucleic Acid [3], 31 °C; in the test with Nucleic Acid [4] it was 29 °C.

`Cc1ccc(-n2cc([C@H]3C[C@H](OP(=O)(O)OC[C@H]4O[C@@H](n5cc(C)c(=O)[nH]c5=O)C[C@@H]4OP(=O)(O)OC[C@H]4O[C@@H](n5cc(C)c(N)nc5=O)C[C@@H]4OP(=O)(O)OC[C@H]4O[C@@H](n5cc(C)c(=O)[nH]c5=O)C[C@@H]4OP(=O)(O)OC[C@H]4O[C@@H](n5cc(C)c(N)nc5=O)C[C@@H]4OP(=O)(O)OC[C@H]4O[C@@H](n5cc(C)c(=O)[nH]c5=O)C[C@@H]4OP(=O)(O)OC[C@H]4O[C@@H](n5cc(C)c(N)nc5=O)C[C@@H]4OP(=O)(O)OC[C@H]4O[C@@H](n5cc(C)c(=O)[nH]c5=O)C[C@@H]4O)[C@@H](COP(=O)(O)O[C@H]4C[C@H](n5cc(C)c(=O)[nH]c5=O)O[C@@H]4COP(=O)(O)O[C@H]4C[C@H](n5cc(C)c(N)nc5=O)O[C@@H]4COP(=O)(O)O[C@H]4C[C@H](n5cc(C)c(=O)[nH]c5=O)O[C@@H]4COP(=O)(O)O[C@H]4C[C@H](n5cc(C)c(=O)[nH]c5=O)O[C@@H]4COP(=O)(O)O[C@H]4C[C@H](n5cc(C)c(=O)[nH]c5=O)O[C@@H]4COP(=O)(O)O[C@H]4C[C@H](n5cc(C)c(=O)[nH]c5=O)O[C@@H]4COP(=O)(O)O[C@H]4C[C@H](n5cc(C)c(=O)[nH]c5=O)O[C@@H]4CO)O3)nn2)cc1`: the Tm with Nucleic Acid [1] came out at 39 °C; in the test on Nucleic Acid [2], 42 °C; in the test on Nucleic Acid [3] it was 38 °C; in the test on Nucleic Acid [4] it was 36 °C.

For `Cc1cn([C@H]2C[C@H](OP(=O)(O)OC[C@H]3O[C@@H](n4cc(C)c(=O)[nH]c4=O)C[C@@H]3OP(=O)(O)OC[C@H]3O[C@@H](n4cc(C)c(N)nc4=O)C[C@@H]3OP(=O)(O)OC[C@H]3O[C@@H](n4cc(C)c(=O)[nH]c4=O)C[C@@H]3OP(=O)(O)OC[C@H]3O[C@@H](n4cc(C)c(N)nc4=O)C[C@@H]3OP(=O)(O)OC[C@H]3O[C@@H](n4cc(C)c(=O)[nH]c4=O)C[C@@H]3O)[C@@H](COP(=O)(O)O[C@H]3C[C@H](n4cc(C)c(=O)[nH]c4=O)O[C@@H]3COP(=O)(O)O[C@H]3C[C@H](c4cn(-c5ccc(C(=O)O)cc5)nn4)O[C@@H]3COP(=O)(O)O[C@H]3C[C@H](n4cc(C)c(=O)[nH]c4=O)O[C@@H]3COP(=O)(O)O[C@H]3C[C@H](n4cc(C)c(N)nc4=O)O[C@@H]3COP(=O)(O)O[C@H]3C[C@H](n4cc(C)c(=O)[nH]c4=O)O[C@@H]3COP(=O)(O)O[C@H]3C[C@H](n4cc(C)c(=O)[nH]c4=O)O[C@@H]3COP(=O)(O)O[C@H]3C[C@H](n4cc(C)c(=O)[nH]c4=O)O[C@@H]3COP(=O)(O)O[C@H]3C[C@H](n4cc(C)c(=O)[nH]c4=O)O[C@@H]3COP(=O)(O)O[C@H]3C[C@H](n4cc(C)c(=O)[nH]c4=O)O[C@@H]3CO)O2)c(=O)nc1N`, the Tm was found to be 33 °C in the test with Nucleic Acid [1], 38 °C in the test with Nucleic Acid [2], 33 °C in the test with Nucleic Acid [3] and 33 °C with Nucleic Acid [4].

The values above are taken from ChEMBL document CHEMBL1795250, “Synthesis and base-pairing properties of C-nucleotides having 1-substituted 1H-1,2,3-triazoles” (Bioorg Med Chem Lett, 2009).
